Measurements from PubChem BioAssay (NCI).
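These data come from cells grown in 96-well plates and exposed to compound for 48 hours at five concentrations. GI50: concentration for 50% inhibition of growth. TGI denotes the concentration required for complete inhibition of growth.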

What was measured:
Test in all cases: inhibition of tumour cell growth, NCI panel, 48 h
CCRF-CEM leukemia = system: CCRF-CEM leukemia
COLO 205 colon = system: COLO 205 colon
LOX IMVI melanoma = system: LOX IMVI melanoma
OVCAR-4 ovarian = system: OVCAR-4 ovarian
OVCAR-5 ovarian = system: OVCAR-5 ovarian
RXF 393 renal = system: RXF 393 renal
SF-268 CNS = system: SF-268 CNS
SK-MEL-5 melanoma = system: SK-MEL-5 melanoma
SN12C renal = system: SN12C renal
SNB-75 CNS = system: SNB-75 CNS

With `CC(C)=CCC/C(C)=C/CCC1(C)C=Cc2c(c3ccccc3oc2=O)O1` (centres undefined) the TGI (CCRF-CEM leukemia) was > 74 µM, the TGI (COLO 205 colon) was 35.5 µM and the TGI (LOX IMVI melanoma) was 32.4 µM. For the same compound, the TGI (OVCAR-4 ovarian) was 28.4 µM, the TGI (OVCAR-5 ovarian) was 32.6 µM and the TGI (RXF 393 renal) was 27.8 µM. For the same compound, the TGI (SF-268 CNS) was 40.8 µM, the TGI (SK-MEL-5 melanoma) was 28.1 µM and the TGI (SN12C renal) was 32 µM. The TGI (SNB-75 CNS) was 19.8 µM.
With `c1ccc2cc3c(cc2c1)OP1(Oc2cccc4cccnc24)(O3)Oc2cc3ccccc3cc2O1` the TGI (CCRF-CEM leukemia) was > 100 µM, the TGI (COLO 205 colon) was > 100 µM and the TGI (LOX IMVI melanoma) was 22.5 µM. For the same compound, the TGI (OVCAR-4 ovarian) was 11.8 µM, the TGI (OVCAR-5 ovarian) was 45.6 µM and the TGI (RXF 393 renal) was > 100 µM. The TGI (SF-268 CNS) was > 100 µM, the TGI (SK-MEL-5 melanoma) was 14.8 µM and the TGI (SN12C renal) was > 100 µM. It also gave a TGI (SNB-75 CNS) of 92.1 µM.
In the case of `OC1COC(OCc2ccccc2)C(O)C1O` (centres undefined), the TGI (CCRF-CEM leukemia) is reported as > 100 µM, the TGI (COLO 205 colon) is reported as > 100 µM and the TGI (LOX IMVI melanoma) is reported as > 100 µM. The TGI (OVCAR-4 ovarian) was > 100 µM, the TGI (OVCAR-5 ovarian) was > 100 µM and the TGI (RXF 393 renal) was > 100 µM. For the same compound, the TGI (SF-268 CNS) was > 100 µM, the TGI (SK-MEL-5 melanoma) was > 100 µM and the TGI (SN12C renal) was > 100 µM.
`O=C(O)C12CC3CC(C1)C2C=C3P(=O)(O)O` (centres undefined) was tested, and the TGI (CCRF-CEM leukemia) was > 100 µM, the TGI (COLO 205 colon) was > 100 µM and the TGI (LOX IMVI melanoma) was > 100 µM. The TGI (OVCAR-4 ovarian) was > 100 µM, the TGI (OVCAR-5 ovarian) was > 100 µM and the TGI (RXF 393 renal) was > 100 µM. The TGI (SF-268 CNS) was > 100 µM, the TGI (SN12C renal) was > 100 µM and the TGI (SNB-75 CNS) was > 100 µM.
In the case of `CC1SC(c2ccc(Cl)cc2)N(CCc2cccs2)C1=O` (centres undefined), the GI50 (CCRF-CEM leukemia) is reported as 2.14 µM, the TGI (CCRF-CEM leukemia) is reported as 11.3 µM and the GI50 (COLO 205 colon) is reported as 1.63 µM. It also gave a TGI (COLO 205 colon) of 3.02 µM, a GI50 (LOX IMVI melanoma) of 1.23 µM and a TGI (LOX IMVI melanoma) of 2.49 µM. For the same compound, the GI50 (OVCAR-4 ovarian) was 1.19 µM, the TGI (OVCAR-4 ovarian) was 2.44 µM and the GI50 (OVCAR-5 ovarian) was 1.85 µM. The TGI (OVCAR-5 ovarian) was 4.56 µM, the GI50 (RXF 393 renal) was 1.56 µM and the TGI (RXF 393 renal) was 2.94 µM. The GI50 (SF-268 CNS) was 1.55 µM, the TGI (SF-268 CNS) was 3.49 µM and the GI50 (SK-MEL-5 melanoma) was 1.43 µM. It also gave a TGI (SK-MEL-5 melanoma) of 2.75 µM, a GI50 (SN12C renal) of 1.7 µM and a TGI (SN12C renal) of 3.15 µM. For the same compound, the GI50 (SNB-75 CNS) was 2.05 µM and the TGI (SNB-75 CNS) was 5.99 µM.
Compound `COCCOCOC(C)(C)[C@H](CCO)O[Si](c1ccccc1)(c1ccccc1)C(C)(C)C` has a TGI (COLO 205 colon) of 33.9 µM, a TGI (LOX IMVI melanoma) of 23.3 µM and a TGI (OVCAR-5 ovarian) of 27.5 µM. For the same compound, the TGI (RXF 393 renal) was 17.8 µM, the TGI (SF-268 CNS) was 22.5 µM and the TGI (SK-MEL-5 melanoma) was 26.7 µM. The TGI (SN12C renal) was 12.7 µM and the TGI (SNB-75 CNS) was 21.6 µM.
`Cc1cccc(CNc2ncnc3[nH]ncc23)c1` was tested, and the TGI (CCRF-CEM leukemia) was > 100 µM, the TGI (COLO 205 colon) was > 100 µM and the TGI (LOX IMVI melanoma) was > 100 µM. The TGI (OVCAR-4 ovarian) was > 100 µM, the TGI (OVCAR-5 ovarian) was > 100 µM and the TGI (RXF 393 renal) was > 100 µM. For the same compound, the TGI (SF-268 CNS) was > 100 µM, the TGI (SK-MEL-5 melanoma) was > 100 µM and the TGI (SN12C renal) was > 100 µM. The TGI (SNB-75 CNS) was > 100 µM.
In the case of `C=CCNC(=O)CN(CC(=O)OC)C1CCCCC1N(CC(=O)OC)CC(=O)OC` (centres undefined), the TGI (CCRF-CEM leukemia) is reported as > 100 µM, the TGI (LOX IMVI melanoma) is reported as > 100 µM and the TGI (OVCAR-5 ovarian) is reported as > 100 µM. For the same compound, the TGI (RXF 393 renal) was > 100 µM, the TGI (SF-268 CNS) was > 100 µM and the TGI (SK-MEL-5 melanoma) was > 100 µM. For the same compound, the TGI (SN12C renal) was > 100 µM.
With `O=C1c2ccccc2C(=O)c2c1cc1c(c2[N+](=O)[O-])OCO1` the GI50 (CCRF-CEM leukemia) was 0.492 µM, the TGI (CCRF-CEM leukemia) was > 100 µM and the GI50 (COLO 205 colon) was 3.46 µM. For the same compound, the TGI (COLO 205 colon) was 16.8 µM, the GI50 (LOX IMVI melanoma) was 1.43 µM and the TGI (LOX IMVI melanoma) was 4.92 µM. The GI50 (OVCAR-4 ovarian) was 1.2 µM, the TGI (OVCAR-4 ovarian) was 4.85 µM and the GI50 (OVCAR-5 ovarian) was 2.39 µM. The TGI (OVCAR-5 ovarian) was 8.74 µM, the GI50 (RXF 393 renal) was 0.506 µM and the TGI (RXF 393 renal) was 2.04 µM. It also gave a GI50 (SF-268 CNS) of 1.46 µM, a TGI (SF-268 CNS) of 7.73 µM and a GI50 (SK-MEL-5 melanoma) of 3.48 µM. The TGI (SK-MEL-5 melanoma) was 11.7 µM, the GI50 (SN12C renal) was 1.73 µM and the TGI (SN12C renal) was 8.05 µM. It also gave a GI50 (SNB-75 CNS) of 1.44 µM and a TGI (SNB-75 CNS) of 3.46 µM.
With `Cc1cn(C2CC(O)C(Cn3nncc3Cn3ncc(=O)[nH]c3=O)O2)c(=O)[nH]c1=O` (centres undefined) the TGI (CCRF-CEM leukemia) was > 100 µM, the TGI (COLO 205 colon) was > 100 µM and the TGI (LOX IMVI melanoma) was > 100 µM. For the same compound, the TGI (OVCAR-4 ovarian) was > 100 µM, the TGI (OVCAR-5 ovarian) was > 100 µM and the TGI (RXF 393 renal) was > 100 µM. For the same compound, the TGI (SF-268 CNS) was > 100 µM, the TGI (SK-MEL-5 melanoma) was > 100 µM and the TGI (SN12C renal) was > 100 µM.
For `Nc1n[nH]c(CCCCCCCc2nc(N)n[nH]2)n1`, the TGI (CCRF-CEM leukemia) was > 100 µM, the TGI (LOX IMVI melanoma) was > 100 µM and the TGI (OVCAR-4 ovarian) was > 100 µM. For the same compound, the TGI (OVCAR-5 ovarian) was > 100 µM, the TGI (RXF 393 renal) was > 100 µM and the TGI (SF-268 CNS) was > 100 µM. The TGI (SN12C renal) was > 100 µM and the TGI (SNB-75 CNS) was > 100 µM.
`COc1cc(C(=O)C2CC3(CCC2(O)c2cc(OC)c(OC)c(OC)c2)CC(=O)Nc2ccccc2C3=O)cc(OC)c1OC` (centres undefined) was tested, and the TGI (CCRF-CEM leukemia) was > 100 µM, the TGI (COLO 205 colon) was 62.6 µM and the TGI (LOX IMVI melanoma) was > 100 µM. For the same compound, the TGI (OVCAR-4 ovarian) was 57.5 µM, the TGI (OVCAR-5 ovarian) was > 100 µM and the TGI (RXF 393 renal) was > 100 µM. For the same compound, the TGI (SF-268 CNS) was > 100 µM, the TGI (SK-MEL-5 melanoma) was 81.2 µM and the TGI (SN12C renal) was > 100 µM. For the same compound, the TGI (SNB-75 CNS) was > 100 µM.
In the case of `COc1cc(/C=C/C2=C(C#N)C(=O)OC2(C)C)ccc1O`, the TGI (CCRF-CEM leukemia) is reported as 33.1 µM, the TGI (COLO 205 colon) is reported as > 100 µM and the TGI (LOX IMVI melanoma) is reported as 44.2 µM. The TGI (OVCAR-5 ovarian) was > 100 µM, the TGI (RXF 393 renal) was > 100 µM and the TGI (SF-268 CNS) was > 100 µM. For the same compound, the TGI (SK-MEL-5 melanoma) was > 100 µM, the TGI (SN12C renal) was > 100 µM and the TGI (SNB-75 CNS) was > 100 µM.
In the case of `Cc1c(C2=NN=C(N=Nc3c(O)cccc3O)/C2=C/c2ccccc2)c(=O)n(-c2ccccc2)n1C`, the TGI (CCRF-CEM leukemia) is reported as > 100 µM, the TGI (COLO 205 colon) is reported as > 100 µM and the TGI (LOX IMVI melanoma) is reported as > 100 µM. For the same compound, the TGI (OVCAR-4 ovarian) was > 100 µM, the TGI (OVCAR-5 ovarian) was > 100 µM and the TGI (RXF 393 renal) was > 100 µM. The TGI (SF-268 CNS) was > 100 µM, the TGI (SK-MEL-5 melanoma) was > 100 µM and the TGI (SN12C renal) was > 100 µM. The TGI (SNB-75 CNS) was > 100 µM.
For `CC(C)=CC(=O)OC1C2C(C)=CC(O)C(O)C2(C)C2C3(O)OCC24C(CC(=O)OC14)C(C)C3O` (centres undefined), the TGI (CCRF-CEM leukemia) was 0.624 µM, the TGI (COLO 205 colon) was 2.77 µM and the TGI (LOX IMVI melanoma) was 0.325 µM. It also gave a TGI (OVCAR-4 ovarian) of 0.749 µM, a TGI (OVCAR-5 ovarian) of 3.79 µM and a TGI (RXF 393 renal) of 0.933 µM. For the same compound, the TGI (SF-268 CNS) was 0.733 µM, the TGI (SK-MEL-5 melanoma) was 0.064 µM and the TGI (SN12C renal) was 6.9 µM. The TGI (SNB-75 CNS) was 0.693 µM.
